The test system of assay [1] is GDF8 signaling (p-SMAD-3 (Ser423/425)). Put plainly: AlphaScreen SureFire SMAD3 (p-Ser423/425) assay, GDF8-stimulated cells (GDF pSMAD (MPC11)). It is filed as cell-based. The following applies: pSMAD3 readout, read-out: GDF8 (inhibition of GDF8 signaling. On the technique in general: Bead proximity is the source of the signal in Alpha formats.
For assay [2], the system named is TGF-β signaling (p-SMAD-3 (Ser423/425)). Nature of the assay: AlphaScreen SureFire SMAD3 (p-Ser423/425) assay, TGF-β-stimulated cells (TGF-β pSMAD (MPC-11)). It counts as cell-based. The following applies: pSMAD3 readout, read-out: TGF-β (inhibition of TGF-β signaling.
Assay [3] deals with HIS-TGF-βR2 WT (Homo sapiens (Human), UniProt P37173). Put plainly: HTRF probe displacement assay with HIS-TGF-βR2 WT. To be noted: read-out: TGFBr2 IC50; HTRF probe displacement, 1 nM HIS-TGF-βR2 WT, 1 hour at room temperature.
Chain of HIS-TGF-βR2 WT (P37173 23-567): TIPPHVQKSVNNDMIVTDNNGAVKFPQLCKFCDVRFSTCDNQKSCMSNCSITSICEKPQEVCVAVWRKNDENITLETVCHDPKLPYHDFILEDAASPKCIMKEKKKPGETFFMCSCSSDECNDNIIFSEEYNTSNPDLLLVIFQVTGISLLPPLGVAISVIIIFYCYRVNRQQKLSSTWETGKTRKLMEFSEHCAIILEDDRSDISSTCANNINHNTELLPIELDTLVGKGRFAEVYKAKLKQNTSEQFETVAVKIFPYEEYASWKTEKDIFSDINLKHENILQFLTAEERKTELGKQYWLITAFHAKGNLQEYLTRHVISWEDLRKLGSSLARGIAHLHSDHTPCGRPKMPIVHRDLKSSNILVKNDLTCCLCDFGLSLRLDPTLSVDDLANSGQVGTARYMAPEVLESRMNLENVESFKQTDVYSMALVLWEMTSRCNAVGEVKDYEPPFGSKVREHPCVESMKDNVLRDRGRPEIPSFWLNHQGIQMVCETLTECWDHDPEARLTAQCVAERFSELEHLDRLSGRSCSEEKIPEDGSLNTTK
Assay [4] has as its target HIS-TGF-βR1 T204D (Homo sapiens (Human), UniProt P36897, T204D). Nature of the assay: HTRF probe displacement assay with HIS-TGF-βR1 T204D. To be noted: read-out: TGFbr1 IC50; HTRF probe displacement, 1 nM HIS-TGF-βR1 T204D, 1 hour at room temperature. (Time-resolved FRET reads energy transfer from a long-lived donor to a nearby acceptor.)

Chain of HIS-TGF-βR1 T204D (P36897 34-503 T204D): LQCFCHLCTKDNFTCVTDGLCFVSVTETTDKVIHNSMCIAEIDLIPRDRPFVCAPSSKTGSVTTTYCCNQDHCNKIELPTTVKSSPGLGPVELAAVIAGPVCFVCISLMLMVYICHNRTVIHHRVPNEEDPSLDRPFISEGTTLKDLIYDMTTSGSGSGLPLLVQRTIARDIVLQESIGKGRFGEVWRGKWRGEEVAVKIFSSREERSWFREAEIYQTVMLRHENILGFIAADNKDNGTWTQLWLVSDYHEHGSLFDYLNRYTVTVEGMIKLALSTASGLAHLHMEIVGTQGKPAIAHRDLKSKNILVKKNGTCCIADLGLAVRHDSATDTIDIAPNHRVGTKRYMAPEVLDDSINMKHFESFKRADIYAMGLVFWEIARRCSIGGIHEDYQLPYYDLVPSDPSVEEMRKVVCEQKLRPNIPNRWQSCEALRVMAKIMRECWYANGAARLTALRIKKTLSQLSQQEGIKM

In the case of “5-(benzo[d]thiazol-6-yl)-4-(3-chlorophenyl)thiazol-2-amine [Compound 166]”, the IC50 in assay [1] was 70.2 nM. As to `CCc1nc(-c2cc(C)cc(F)c2)c(-c2ccc3[nH]ncc3c2)[nH]1` [Compound 142, 5-(2-Ethyl-4-(3-fluoro-5-methylphenyl)-1H-imidazol-5-yl)-1H-indazole], the IC50 stood at 670 nM in assay [1] and 4390 nM in assay [2]. Take `Cc1cc(-c2ncn(C)c2-c2ccc3cn[nH]c3c2)ccc1F` [Compound 7, 6-(4-(4-Fluoro-3-methylphenyl)-1-methyl-1H-imidazol-5-yl)-1H-indazole]: the values for the IC50 in assay [1] and in assay [2] were 40 nM and 150 nM, respectively.

Regarding `Cc1cc(-c2ncn(C)c2-c2ccc3cn[nH]c3c2)ccc1F` [Compound 5, 6-(4-(4-Fluoro-3-methylphenyl)-1-methyl-1H-imidazol-5-yl)-1H-indazole], the results for the IC50 in assay [1] and in assay [2] were 10 nM and 20 nM, respectively. As for `CC(C)(C)NC(=O)N1CC(n2cnc(-c3ccc(F)cc3)c2-c2ccc3ncc(C#N)n3n2)C1` [Example 193′, N-(tert-butyl)-3-(5-(3-cyanoimidazo[1,2-b]pyridazin-6-yl)-4-(4-fluorophenyl)-1H-imidazol-1-yl)azetidine-1-carboxamide], the IC50 in assay [3] was above 15000 nM; in assay [4] it was 227 nM. Turning to `N#Cc1cnc2ccc(-c3c(-c4ccc(F)cc4)ncn3C3CCCCC3O)nn12` (stereo not drawn) [17′, 6-(4-(4-fluorophenyl)-1-(2-hydroxycyclohexyl)-1H-imidazol-5-yl)imidazo[1,2-b]pyridazine-3-carbonitrile], the IC50 in assay [3] is above 15000 nM; in assay [4] it was 3.5 nM. Consider `NC(=O)c1cnc2ccc(-c3c(-c4ccc(F)c(Cl)c4)ncn3C(CO)CO)cn12` [122′, 6-(4-(3-chloro-4-fluorophenyl)-1-(1,3-dihydroxypropan-2-yl)-1H-imidazol-5-yl)imidazo[1,2-a]pyridine-3-carboxamide], for which the IC50 was above 15000 nM in assay [3] and 1.8 nM in assay [4].

For `N#Cc1cnc2ccc(-c3c(-c4ccc(F)cc4)ncn3C3CN(C(=O)C4CC4)C3)nn12` [Example 192′, 6-(1-(1-(cyclopropanecarbonyl)azetidin-3-yl)-4-(4-fluorophenyl)-1H-imidazol-5-yl)imidazo[1,2-b]pyridazine-3-carbonitrile], the values for the IC50 in assay [3] and in assay [4] were above 15000 nM and 229 nM, respectively.

The values are drawn from patent publication US9884868B2, “TGF-beta inhibitors” (Rigel Pharmaceuticals, Inc., priority 2015, dated 2018).
